Assay results reported in US20060293307A1, “Oxazolidinone derivatives as antimicrobials” (priority 2002, published 2006).
Values after ≈ are worked out from the molar mass of the structure shown. Read-outs that look alike come from different tables or passages of the source.

Tests used:
M. avium AIIMS = assay: MIC against MAC strains, agar dilution; format: cell-based, Mycobacterium avium; settings: S. No. 04 Ma-4, M. avium AIIMS, Middle Brook 7H10 + OADC, 37° C., 14-21 days
S. aureus ATCC 25923 = assay: MIC, agar incorporation method; format: cell-based, Staphylococcus aureus; settings: Staphylococcus aureus, ATCC25923; S. No. 1, organism cell empty; read-out: MIC
[1] = tested on: S. aureus (MRSA 33) Cipro R; assay: MIC, agar incorporation method; format: cell-based, Staphylococcus aureus; settings: Staphylococcus aureus; S. No. 7, S. aureus (MRSA 33) Cipro R; read-out: MIC
S. pneumoniae AB 31 = assay: MIC, agar incorporation method; format: cell-based, Streptococcus pneumoniae; settings: Streptococcus pneumoniae, AB31
S pneumoniae 1294. = assay: MIC, agar incorporation method; format: cell-based, Streptococcus pneumoniae; settings: Streptococcus pneumoniae, 1294.
[2] = tested on: M. avium intracellulare 926/98; assay: MIC against MAC strains, agar dilution; format: cell-based; settings: S. No. 14 Mai-6, M. avium intracellulare 926/98, Middle Brook 7H10 + OADC, 37° C., 14-21 days
S. pneumoniae CS1221 = assay: MIC, agar incorporation method; format: cell-based, Streptococcus pneumoniae; settings: Streptococcus pneumoniae; S. No. 34, S. pneumoniae CS1221; read-out: MIC
S. pneumoniae AB 22 = assay: MIC, agar incorporation method; format: cell-based, Streptococcus pneumoniae; settings: Streptococcus pneumoniae, AB22
E. faecalis SP 346 (VRE) = assay: MIC, agar incorporation method; format: cell-based; settings: Enterococcus faecalis; S. No. 20, E. faecalis SP 346 (VRE); read-out: MIC
S. pneumoniae CS 1687 = assay: MIC, agar incorporation method; format: cell-based, Streptococcus pneumoniae; settings: Streptococcus pneumoniae, CS1687
E. faecium 6A (VRE) = assay: MIC, agar incorporation method; format: cell-based, Enterococcus faecium; settings: Enterococcus faecium; S. No. 21, E. faecium 6A (VRE); read-out: MIC
H. influenzae 23 = assay: MIC against Haemophilus strains; format: cell-based; settings: Haemophilus influenzae; s. No. 5, H. influenzae 23; read-out: MIC
[3] = tested on: S. epidermidis (MRSE) 23760; assay: MIC, agar incorporation method; format: cell-based, Staphylococcus epidermidis; settings: Staphylococcus epidermidis, MRSE
P. aeruginosa ATCC 27853 = assay: MIC, agar incorporation method; format: cell-based; settings: Pseudomonas aeruginosa, ATCC27853; S. No. 28, P. aeruginosa ATCC 27853; read-out: MIC
Salmonella 205 = assay: MIC, agar incorporation method; format: cell-based; settings: S. No. 26, Salmonella 205; read-out: MIC
Procedure: The compounds of the invention display antibacterial activity when tested by the agar incorporation method. The following minimum inhibitory concentrations (μg/ml) were obtained for representative compounds of the invention which are given below in the following tables.
Briefly, the compounds were dissolved in DMSO and doubling dilution of the compounds were incorporated into Meer Hilton agar before solidification. Inoculum was prepared by suspending 4 to 5 colonies into 5 ml of normal saline solution and adjusting the turbidity to 0.5 Macfarland turbidity standard tables (1.5×10^8 CFU/ml), after appropriate dilutions, 10^4 CFU/spot was transfered into the surface of dried plate and incubated for 18 hours (24 hours for MRSN studies). The concentration showing no growth of the inoculated culture was recorded as the MIC. Appropriate ATCC standard strains were simultaneously tested and result recorded only when the MIC's against standard antibiotics were within the acceptable range.

M. tuberculosis SGPGI = assay: MIC against M. tuberculosis strains, agar dilution; format: cell-based, Mycobacterium tuberculosis; settings: S. No. 07 Mt-, Middle Brook 7H10 + OADC, 37° C., 14-21 days
S. pneumoniae AB-3 = assay: MIC, agar incorporation method; format: cell-based, Streptococcus pneumoniae; settings: Streptococcus pneumoniae, AB3; S. No. 32, S. pneumoniae AB-3; read-out: MIC
K. oxytoca 49131 = assay: MIC, agar incorporation method; format: cell-based; settings: Klebsiella oxytoca; S. No. 27, K. oxytoca 49131; read-out: MIC
S. pyogenes 20361 = assay: MIC, agar incorporation method; format: cell-based, Streptococcus pyogenes; settings: Streptococcus pyogenes; S. No. 53, S. pyogenes 20361; read-out: MIC
S. pneumoniae AB 25 = assay: MIC, agar incorporation method; format: cell-based, Streptococcus pneumoniae; settings: Streptococcus pneumoniae, AB25
S. pneumoniae AB 10 = assay: MIC, agar incorporation method; format: cell-based, Streptococcus pneumoniae; settings: Streptococcus pneumoniae, AB10; S. No. 35, S. pneumoniae AB 10; read-out: MIC
M. intracellulare F21/12 = assay: MIC against MAC strains, agar dilution; format: cell-based; settings: S. No. 08 Mi-3, M. intracellulare F21/12, Middle Brook 7H10 + OADC, 37° C., 14-21 days
M. tuberculosis PC [4] = assay: MIC against M. tuberculosis strains, agar dilution; format: cell-based, Mycobacterium tuberculosis; settings: S. No. 17 Mt-, Middle Brook 7H10 + OADC, 37° C., 14-21 days
M. tuberculosis PC [5] = assay: MIC against M. tuberculosis strains, agar dilution; format: cell-based, Mycobacterium tuberculosis; settings: S. No. 18 Mt-, Middle Brook 7H10 + OADC, 37° C., 14-21 days
M. intracellulare B-78/3 = assay: MIC against MAC strains, agar dilution; format: cell-based; settings: S. No. 09 Mi-4, M. intracellulare B-78/3, Middle Brook 7H10 + OADC, 37° C., 14-21 days
S. pneumoniae AB 34 = assay: MIC, agar incorporation method; format: cell-based, Streptococcus pneumoniae; settings: Streptococcus pneumoniae, AB34; S. No. 49, S. pneumoniae AB 34; read-out: MIC
S. pneumoniae AB 14 = assay: MIC, agar incorporation method; format: cell-based, Streptococcus pneumoniae; settings: Streptococcus pneumoniae, AB14
S. pneumoniae AB 29 = assay: MIC, agar incorporation method; format: cell-based, Streptococcus pneumoniae; settings: Streptococcus pneumoniae, AB29
[6] = Mycobacterium avium, read-out: MIC
[7] = Mycobacterium tuberculosis, read-out: MIC

CC(=O)NC[C@H]1CN(c2ccc(N3CCN(c4ccc([N+](=O)[O-])s4)CC3)c(F)c2)C(=O)O1 [Compound No. 1, (S)—N-[[3-[3-Fluoro-4-[4-(5-nitro-2-thienyl)-1-piperazinyl]phenyl]-2-oxo-5-oxazolidinyl]methyl]acetamide]
MIC (M. avium AIIMS; [6]): 0.25 µg/mL | MIC (S. aureus ATCC 25923): 0.25 µg/mL (≈ 0.539 µM) | MIC [1]: 0.25 µg/mL (≈ 0.539 µM) | MIC (S. pneumoniae AB 31): 0.125 µg/mL (≈ 0.27 µM) | MIC (S pneumoniae 1294.): 0.125 µg/mL (≈ 0.27 µM) | MIC [2, 6]: < 0.12 µg/mL | MIC (S. pneumoniae CS1221): 0.06 µg/mL (≈ 0.129 µM) | MIC (S. pneumoniae AB 22): 0.125 µg/mL (≈ 0.27 µM) | MIC (E. faecalis SP 346 (VRE)): 0.25 µg/mL (≈ 0.539 µM) | MIC (S. pneumoniae CS 1687): 0.125 µg/mL (≈ 0.27 µM) | MIC (E. faecium 6A (VRE)): 0.25 µg/mL (≈ 0.539 µM) | MIC (H. influenzae 23): > 16 µg/mL | MIC [3]: 0.125 µg/mL (≈ 0.27 µM) | MIC (P. aeruginosa ATCC 27853): > 16 µg/mL | MIC (Salmonella 205): > 16 µg/mL | MIC (M. tuberculosis SGPGI; [7]): 0.5 µg/mL | MIC (S. pneumoniae AB-3): 0.06 µg/mL (≈ 0.129 µM) | MIC (K. oxytoca 49131): > 16 µg/mL | MIC (S. pyogenes 20361): 0.06 µg/mL (≈ 0.129 µM) | MIC (S. pneumoniae AB 25): 0.125 µg/mL (≈ 0.27 µM) | MIC (S. pneumoniae AB 10): 0.06 µg/mL (≈ 0.129 µM) | MIC (M. intracellulare F21/12; Mycobacterium intracellulare, read-out: MIC): 0.25 µg/mL | MIC (M. tuberculosis PC [4]; [7]): 0.25 µg/mL | MIC (M. tuberculosis PC [5]; [7]): 0.25 µg/mL | MIC (M. intracellulare B-78/3; Mycobacterium intracellulare, B78/3, read-out: MIC): 0.25 µg/mL | MIC (S. pneumoniae AB 34): 0.25 µg/mL (≈ 0.539 µM) | MIC (S. pneumoniae AB 14): 0.125 µg/mL (≈ 0.27 µM) | MIC (S. pneumoniae AB 29): 0.125 µg/mL (≈ 0.27 µM)

NNC(=O)c1ccncc1 [INH]
MIC (M. avium AIIMS): >32 µg/mL | MIC [2]: 4.0 µg/mL | MIC (M. tuberculosis SGPGI): >32 µg/mL | MIC (M. intracellulare F21/12): 32 µg/mL | MIC (M. tuberculosis PC [4]): 32 µg/mL | MIC (M. tuberculosis PC [5]): 0.25 µg/mL | MIC (M. intracellulare B-78/3): 16 µg/mL

C[C@@H]1CN(c2c(F)c(N)c3c(=O)c(C(=O)O)cn(C4CC4)c3c2F)C[C@H](C)N1 [SPAR]
MIC (M. avium AIIMS): 8.0 µg/mL | MIC [2]: 2.0 µg/mL | MIC (M. tuberculosis SGPGI): 4.0 µg/mL | MIC (M. intracellulare F21/12): 0.125 µg/mL | MIC (M. tuberculosis PC [4]): 8.0 µg/mL | MIC (M. tuberculosis PC [5]): ≦0.125 μg/ml | MIC (M. intracellulare B-78/3): 2.0 µg/mL
